Experimental findings from patent US9187438B2, “Derivatives of benzothiazines, preparation thereof and application thereof as drugs” (PIERRE FABRE MEDICAMENT, priority 2009, dated 2015) are described below.

What all share (type): biochemical
In assay [1] the target is T1, 11β-HSD1 (Homo sapiens, UniProt P28845).
T1 construct: adding 1 μg of human hepatic microsome (Xenotech); tissue Xenotech; host or cells: human liver microsomes
As to the kind of experiment: Human enzymatic activity of 11β-HSD1 from liver microsomes, cortisone to cortisol conversion, HTRF detection (inhibition %). The settings on record: 10^−6M inhibitor, read-out: 11β-HSD1/HTRF % inhib. (10^−6M). How it is done: 1) Human Enzymatic Activity of 11β-HSD1 from Liver Microsomes after Treatment with Inhibitor Compounds (Inhibition %).
The enzymatic test is based on the conversion of cortisone into cortisol by 11β-HSD1. […] A calibration curve of known cortisol concentrations is produced simultaneously under the same experimental conditions. The plates are incubated for 2 hours at 37° C. (enzymatic phase). By adding 25 μL of conjugate cortisol-d2 and of 25 μL of anti-cortisol anαtibody labeled with Eu^3+ cryptate per well, the enzymatic reaction may be stopped and after incubation of 2 hours at room temperature the formed cortisol (detection phase) may be quantified by HTRF® (CIS bio international, reference 62CO2PEC). The fluorescence measurements are conducted with a Fusion™ α(Perkin Elmer) reader. For each well, fluorescence is measured at 620 nm and at 665 nm. A ratio (λ665 nm/λ620 nm) and a specific FRET signal are calculated, with which an inhibition percentage may be determined for each concentration of evaluated inhibitor compound.

In assay [2] the target is T1, 11β-HSD1. As to the kind of experiment: Human enzymatic activity of 11β-HSD1 from liver microsomes, [3H]cortisone to [3H]cortisol conversion, SPA (inhibition % or EC50). The settings on record: for inhibition at 1 µM: 10^−6M inhibitor, read-out: 11β-HSD1/SPA % inhib. (10^−6M). How it is done: The enzymatic test is based on the conversion of [^3H] cortisone into [^3H] cortisol by 11β-HSD1. […] The sealed plates are centrifuged at low speed for mixing the components and then incubated for 2 hours at 37° C. (enzymatic phase). The enzymatic reaction is stopped by adding 70 μl/well of complex [10 mg/mL of yttrium silicate SPA beads associated with the protein A (GE Healthcare) and pre-incubated with an anti-cortisol monoclonal antibody (East Coast Biologics, ME)] containing 10 μM of 18β-glycerrhitinic acid. The plates are sealed and then incubated under slow orbital stirring for 2 hours at room temperature (detection phase).

In another assay the target is T2, 11β-HSD2 (Homo sapiens, UniProt P80365).
T2 construct: of human kidney microsomes (Xenotech); tissue Xenotech; host or cells: human kidney microsomes
T2 sequence (P80365 1-405): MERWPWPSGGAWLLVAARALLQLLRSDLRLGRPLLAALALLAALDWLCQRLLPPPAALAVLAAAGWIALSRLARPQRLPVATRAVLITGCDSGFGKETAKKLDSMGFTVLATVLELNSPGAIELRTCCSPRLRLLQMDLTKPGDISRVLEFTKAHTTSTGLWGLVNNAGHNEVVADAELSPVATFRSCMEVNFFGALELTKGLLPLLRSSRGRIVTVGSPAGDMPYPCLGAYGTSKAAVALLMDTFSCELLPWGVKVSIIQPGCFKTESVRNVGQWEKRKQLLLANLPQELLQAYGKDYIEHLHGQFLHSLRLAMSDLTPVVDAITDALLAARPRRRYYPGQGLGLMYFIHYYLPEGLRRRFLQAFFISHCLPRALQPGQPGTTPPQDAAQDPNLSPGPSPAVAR
Kind of assay: Human enzymatic activity of 11β-HSD2 from kidney microsomes, [3H]cortisol to [3H]cortisone conversion, SPA (inhibition %). The settings on record: 10^−5M inhibitor, read-out: 11β-HSD2/SPA % inhib. (10^−5M). As for the experimental part:
3) Human Enzymatic Activity of 11β-HSD2 from Kidney Microsomes after Treatment with the Inhibitor Compounds (Inhibition %).
The enzymatic test is based on the conversion of [^3H] cortisol into [^3H] cortisone by 11β-HSD2. The enzymatic reaction is started by adding 0.75 μg (standardization of this amount in order to obtain 80% of the conversion maximum of the substrate under the experimental conditions) of human kidney microsomes (Xenotech) to wells (Optiplate™ 96-well plates, a reaction volume of 50 μL) containing 8 nM [1,2,6,7-^3H] cortisol (specific activity of 70-75 Ci/mmol, Amersham-GE Healthcare) in a 50 mM HEPES buffer (pH 7.4) with 100 mM KCl, 5 mM NaCl, 2 mM MgCl2, 1 mM NAD^+ and the inhibitor compound or the carrier (1% DMSO). The sealed plates are centrifuged at low speed in order to mix the components and then incubated for 2 hours at 37° C. (enzymatic phase). The enzymatic reaction is stopped by adding 70 μl/well of complex [10 mg/mL of yttrium silicate SPA beads associated with protein A (GE Healthcare) and pre-incubated with an anti-cortisol monoclonal antibody (East Coast Biologics, ME)] containing 10 μM of 18β-glycerrhitinic acid. The plates are sealed and then incubated under slow orbital stirring for 2 hours at room temperature (detection phase). After centrifugation, the measurements are conducted with a scintillation counter TopCount NXT (Perkin Elmer). An inhibition percentage for each evaluated compound concentration is calculated relatively to the standard enzymatic activity (carrier 1% DMSO).

Each structure is given as a SMILES string.

T1 sequence (P28845 whole entry): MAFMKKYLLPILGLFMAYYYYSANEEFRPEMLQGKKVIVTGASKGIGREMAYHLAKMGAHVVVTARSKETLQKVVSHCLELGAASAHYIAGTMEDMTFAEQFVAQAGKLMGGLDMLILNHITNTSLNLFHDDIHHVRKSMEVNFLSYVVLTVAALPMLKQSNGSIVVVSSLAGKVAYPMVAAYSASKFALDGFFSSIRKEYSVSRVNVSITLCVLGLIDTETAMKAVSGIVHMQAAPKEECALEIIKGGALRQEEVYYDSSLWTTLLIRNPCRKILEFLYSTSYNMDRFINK

In the case of `CN1C(C(=O)c2ccc3ccccc3c2)=C(O)c2ccccc2S1(=O)=O` [Example 1, (4-Hydroxy-2-methyl-1,1-dioxo-2H-benzo[e][1,2]thiazin-3-yl)(naphthalen-2-yl)methanone], the inhibition at 1 µM on 11β-HSD1 [1] was 99%. In addition, at 11β-HSD1 [2], the concentration for a half-maximal effect (EC50) turned out to be 16 nM and the inhibition at 1 µM came to 97%. Further, on 11β-HSD2, the inhibition at 10 µM was determined as 42%.
In the case of `Cc1ccc(C(=O)C2=C(O)c3ccccc3S(=O)(=O)N2C)cc1` [Example 3, (4-hydroxy-2-methyl-2H-1,1-dioxo-benzo[e][1,2]thiazin-3-yl) (4-methylphenyl)methanone], on 11β-HSD1 [1], the inhibition at 1 µM is 99%. Further, at 11β-HSD1 [2], a half-maximal effect (EC50) was put at 64 nM and the inhibition at 1 µM worked out at 93%. Also, the inhibition at 10 µM on 11β-HSD2 turned out to be 33%.
The like results for `CCN1C(C(=O)c2ccc3ccccc3c2)=C(O)c2ccccc2S1(=O)=O` [Example 9, (4-hydroxy-2-ethyl-1,1-dioxo-2H-benzo[e][1,2]thiazin-3-yl)(naphthalen-2-yl)methanone] were, in that order, 98%, 60 nM, 88% and 5%.
The like results for `CN1C(C(=O)c2ccc3ccccc3c2)=C(O)c2ccc(F)cc2S1(=O)=O` [Example 17, (7-Fluoro-4-hydroxy-2-methyl-1,1-dioxo-2H-benzo[e][1,2]thiazin-3-yl)(naphthalen-2-yl)methanone] were, in that order, 100%, 11 nM, 99% and 61%.
For `CCN1C(C(=O)c2ccc3ccccc3c2)=C(O)c2ccc(F)cc2S1(=O)=O` [Example 18, (7-Fluoro-4-hydroxy-2-ethyl-1,1-dioxo-2H-benzo[e][1,2]thiazin-3-yl)(naphthalen-2-yl)methanone], the inhibition at 1 µM at 11β-HSD1 [1] worked out at 100%; on 11β-HSD1 [2], 91%. The concentration for a half-maximal effect (EC50) at 11β-HSD1 [2] came to 69 nM. For the same compound, on 11β-HSD2, the inhibition at 10 µM worked out at 25%.
Turning to `CC(=O)OC1=C(C(=O)c2ccc3ccccc3c2)N(C)S(=O)(=O)c2ccccc21` [Example 46, Acetic acid 2-methyl-3-(naphthalene-2-carbonyl)-1,1-dioxo-2H-benzo[e][1,2]thiazin-4-yl ester], the inhibition at 1 µM on 11β-HSD1 [1] stood at 100%. Also, on 11β-HSD1 [2], the EC50 was 72 nM and the inhibition at 1 µM worked out at 91%. The inhibition at 10 µM on 11β-HSD2 worked out at 63%.
In the case of `CN1C(C(=O)c2ccc3ccccc3c2)=C(OC(=O)COc2ccccc2)c2ccccc2S1(=O)=O` [Example 54, Phenoxyacetic acid 2-methyl-3-(naphthalene-2-ylcarbonyl)-1,1-dioxo-2H-benzo[e][1,2]thiazin-4-yl ester], the inhibition at 1 µM on 11β-HSD1 [1] was 100%; on 11β-HSD1 [2], 97%. It took 27 nM to reach a half-maximal effect at 11β-HSD1 [2] (EC50). The inhibition at 10 µM on 11β-HSD2 was determined as 71%.
Regarding `CN1C(C(=O)c2ccc(Cl)c(Cl)c2)=C(O)c2ccccc2S1(=O)=O` [Example 123, (4-hydroxy-2-methyl-1,1-dioxo-2H-benzo[e][1,2]thiazin-3-yl) (3,4-dichlorophenyl)methanone], the results for the inhibition at 1 µM on 11β-HSD1 [1] and on 11β-HSD1 [2] were 100% and 93%, respectively. Further, the 50% effective concentration (EC50) at 11β-HSD1 [2] came out at 43 nM. At 11β-HSD2, the inhibition at 10 µM was 31%.
In the case of `CN1C(C(=O)c2cccc(Br)c2)=C(O)c2ccccc2S1(=O)=O` [Example 142, (3-Bromo-phenyl)-(4-hydroxy-2-methyl-1,1-dioxo-1,2-dihydro-2H-benzo[e][1,2]thiazin-3-yl)-methanone], the inhibition at 1 µM at 11β-HSD1 [1] was 100%. Besides, at 11β-HSD1 [2], the half-maximal effective concentration (EC50) was 21 nM and the inhibition at 1 µM turned out to be 87%.

Usually EC50 stands for the concentration that produces a half-maximal response.
